Source: patent US20210115104A1, “AMYLIN ANALOGUES” (Zealand Pharma A/S, priority 2015, published 2021)
*1 amine or outer side, *2 acyl side, *3 side chain or, on linkers, in order; H or OH if unused. Where a SMILES comes first, the peptide text is derived from it. Bridges are numbered along the chain shown (N, C = ends). [ ]: non-standard residue; d: D form. The star is where a group is joined. C20 diacid = O=C(O)CCCCCCCCCCCCCCCCCCC(=O)*; γGlu = O=C(O)[C@H](CCC(=O)[*:2])N[*:1]; Hyp = O=C(O)[C@@H]1C[C@@H](O)CN1; NMeI = CC[C@H](C)[C@H](NC)C(=O)O; Aad = N[C@@H](CCCC(=O)O)C(=O)O; Sar = CNCC(=O)O

Tests used:
[1] = target: T1, human amylin receptor 3 (hAMYR3), hCTR2 co-expressed with hRAMP3 (Homo sapiens, UniProt O60896+P30988); test: hAMYR3 cAMP assay (AlphaScreen) in COS7 cells; assay type: cell-based; conditions: cAMP induction, COS7 cells expressing hAMYR3; Table 1; read-out: hAMYR3 EC50
T1 construct: expressed in transfected cells
T1 sequence (P30988 25-474): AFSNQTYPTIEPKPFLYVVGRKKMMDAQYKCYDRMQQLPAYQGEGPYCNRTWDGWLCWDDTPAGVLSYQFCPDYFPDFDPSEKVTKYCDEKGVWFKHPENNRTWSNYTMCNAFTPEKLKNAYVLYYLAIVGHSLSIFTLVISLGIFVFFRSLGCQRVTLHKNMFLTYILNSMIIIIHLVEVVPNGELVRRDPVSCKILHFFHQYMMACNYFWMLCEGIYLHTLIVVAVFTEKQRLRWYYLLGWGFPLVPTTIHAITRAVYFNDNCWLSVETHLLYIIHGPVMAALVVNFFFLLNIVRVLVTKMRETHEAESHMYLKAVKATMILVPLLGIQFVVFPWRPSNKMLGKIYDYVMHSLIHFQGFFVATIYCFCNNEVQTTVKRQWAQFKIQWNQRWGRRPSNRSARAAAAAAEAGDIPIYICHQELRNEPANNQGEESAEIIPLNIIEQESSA
T1 sequence (O60896 24-148 partner): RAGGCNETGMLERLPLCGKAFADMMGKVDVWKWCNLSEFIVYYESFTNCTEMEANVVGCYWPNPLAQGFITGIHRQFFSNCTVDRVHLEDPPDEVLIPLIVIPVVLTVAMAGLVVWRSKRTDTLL
Procedure, shortened: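 EC50 values derive from 4PL curve fits of cAMP (AlphaScreen) in lysates of RAMP-naive COS7 cells stably carrying hCTR2 plus hRAMP3. Peptide dilution series were applied for 15 min at 37 °C in pH 7.4 Tyrode buffer containing 100 µM IBMX and 0.1% casein.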

[2] = Assessment of chemical stability (RP-HPLC normalized purity); assay type: physicochemical; conditions: 7 days, 40° C., Table 1; for Normalized purity after 7 days, 40° C., pH 4: pH 4, 0.2 mg/ml; for Normalized purity after 7 days, 40° C., pH 6: pH 6, 0.2 mg/ml; for Normalized purity after 7 days, 40° C., pH 7.5: pH 7.5, 0.2 mg/ml; for Normalized purity after 7 days, 40° C., pH 9: pH 9, 0.2 mg/ml
Procedure, shortened: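 Purity after 7 days at 40° C is expressed relative to T=0 (set to 100) for each pH. Samples at 0.2 mg/ml, pH 4, 6, 7.5 or 9, analyzed by RP-HPLC with UV 220 nm on C8 (ammonium formate) or C18 (TFA) gradients.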

[3] = Assessment of physical stability (Thioflavin T fibrillation); assay type: physicochemical; design: key: FND = fibrillation not detected; FD = fibrillation detected; conditions: 1 mg/ml, 40° C., ThT; for Fibrillation pH 4.0 (Ac): 50 mM acetate buffer pH 4.0, 96 hours; for Fibrillation pH 7.0 (His): 50 mM histidine buffer pH 7.0, 96 hours; for Fibrillation pH 7.0 (Phos.): 50 mM phosphate buffer pH 7.0, 96 hours
Procedure, shortened: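 Fibrillation lag-time, in hours, taken where regressions of the initial stable phase and the growth phase intersect. ThT (40 μM) fluorescence monitored at 40 °C for 96 h, 10-min reads each preceded by 300 s mixing. Peptide at 1 mg/ml in 50 mM buffers: phosphate or histidine pH 7.0, acetate pH 4.0.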

[4] = target: T2, human calcitonin receptor (hCTR2) (Homo sapiens, UniProt P30988); test: hCTR2 cAMP assay (AlphaScreen) in COS7 cells; assay type: cell-based; conditions: cAMP induction, COS7 cells expressing hCTR2; Table 1; read-out: hCTR2 EC50
T2 construct: expressed in transfected cells
T2 sequence (P30988 25-474): T1 sequence (P30988 25-474)
Procedure, shortened: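 cAMP induction, read by AlphaScreen after lysis, gives EC50 values via 4PL curve fitting. Peptides were applied at rising concentrations for 15 min at 37 °C, with IBMX and 0.1% casein in HEPES-buffered Tyrode pH 7.4, to COS7 cells (no endogenous RAMPs) stably expressing human CTR2.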

In the case of `CC[C@H](C)[C@@H](C(=O)N[C@@H](CC(C)C)C(=O)N[C@@H](CO)C(=O)N[C@@H](CO)C(=O)N[C@H](C(=O)N[C@@H](CCC(=O)O)C(=O)N[C@H](C(=O)NCC(=O)N[C@@H](CO)C(=O)N[C@@H](CC(=O)O)C(=O)N[C@H](C(=O)N1C[C@H](O)C[C@H]1C(N)=O)[C@@H](C)O)C(C)C)[C@@H](C)O)N(C)C(=O)[C@H](C)NC(=O)CN(C)C(=O)[C@H](Cc1ccccc1)NC(=O)[C@H](CO)NC(=O)[C@H](CO)NC(=O)[C@H](CCCNC(=N)N)NC(=O)[C@H](CCC(N)=O)NC(=O)[C@H](CC(C)C)NC(=O)[C@H](Cc1ccccc1)NC(=O)[C@H](Cc1c[nH]cn1)NC(=O)[C@H](C)NC(=O)[C@H](CC(C)C)NC(=O)[C@H](CCCNC(=N)N)NC(=O)[C@H](CCC(=O)O)NC(=O)[C@@H](NC(=O)[C@H](C)NC(=O)[C@@H]1CSSC[C@H](NC(=O)[C@H](CCCNC(=N)N)NC(=O)CC[C@H](NC(=O)CCCCCCCCCCCCCCCCCCC(=O)O)C(=O)O)C(=O)N[C@@H](CC(N)=O)C(=O)N[C@@H]([C@@H](C)O)C(=O)N[C@@H](C)C(=O)N[C@@H]([C@@H](C)O)C(=O)N1)[C@@H](C)O` [Compound 60, [19CD]-isoGlu-R-C( )-NTAT-C( )-ATERLAHFLQRSSF-Gly(Me)-A-Ile(Me)-LSSTEVGSDT-Hyp-NH2] ({C20 diacid-γGlu}-RCNTATCATERLAHFLQRSSF[Sar]A[NMeI]LSSTEVGSDT[Hyp]-NH2; disulfide 2-7), the EC50 [1] is reported as 0.09 nM, the “Normalized purity after 7 days, 40° C., pH 4” value (shortened to “Normalized purity … pH 4”) [2] is reported as “A (A = >90%)” and the “Normalized purity after 7 days, 40° C., pH 6” value (“Normalized purity … pH 6” for short) [2] is reported as “A (A = >90%)”. For the same compound, the “Normalized purity after 7 days, 40° C., pH 7.5” value (“Normalized purity … pH 7.5” below) [2] was “A (A = >90%)”, the “Normalized purity after 7 days, 40° C., pH 9” value (“Normalized purity … pH 9” for short) [2] was “B (B = 70-90%)” and the “Fibrillation pH 4.0 (Ac)” value [3] was “FND”. The “Fibrillation pH 7.0 (His)” value [3] was “FND”, the “Fibrillation pH 7.0 (Phos.)” value [3] was “FND” and the EC50 [4] was 0.08 nM.

With `CC[C@H](C)[C@@H](C(=O)N[C@@H](CC(C)C)C(=O)N[C@@H](CO)C(=O)N[C@@H](CO)C(=O)N[C@H](C(=O)N[C@@H](CCC(=O)O)C(=O)N[C@H](C(=O)NCC(=O)N[C@@H](CO)C(=O)N[C@@H](CO)C(=O)N[C@H](C(=O)N1CCC[C@H]1C(N)=O)[C@@H](C)O)C(C)C)[C@@H](C)O)N(C)C(=O)[C@H](C)NC(=O)CN(C)C(=O)[C@H](Cc1ccccc1)NC(=O)[C@H](CO)NC(=O)[C@H](CO)NC(=O)[C@H](CCCNC(=N)N)NC(=O)[C@H](CC(N)=O)NC(=O)[C@H](CC(C)C)NC(=O)[C@H](Cc1ccccc1)NC(=O)[C@H](Cc1c[nH]cn1)NC(=O)[C@H](C)NC(=O)[C@H](CC(C)C)NC(=O)[C@H](CCCNC(=N)N)NC(=O)[C@H](CCC(=O)O)NC(=O)[C@@H](NC(=O)[C@H](C)NC(=O)[C@@H]1CSSC[C@H](NC(=O)[C@H](CCCNC(=N)N)NC(=O)CC[C@H](NC(=O)CCCCCCCCCCCCCCCCCCC(=O)O)C(=O)O)C(=O)NCC(=O)N[C@@H]([C@@H](C)O)C(=O)N[C@@H](C)C(=O)N[C@@H]([C@@H](C)O)C(=O)N1)[C@@H](C)O` [Compound 35, [19CD]-isoGlu-R-C( )-GTAT-C( )-ATERLAHFLNRSSF-Gly(Me)-A-Ile(Me)-LSSTEVGSSTP-NH2] ({C20 diacid-γGlu}-RCGTATCATERLAHFLNRSSF[Sar]A[NMeI]LSSTEVGSSTP-NH2; disulfide 2-7) the EC50 [1] was 0.11 nM, the “Normalized purity … pH 4” value [2] was “A (A = >90%)” and the “Normalized purity … pH 6” value [2] was “A (A = >90%)”. For the same compound, the “Normalized purity … pH 7.5” value [2] was “B (B = 70-90%)”, the “Normalized purity … pH 9” value [2] was “B (B = 70-90%)” and the “Fibrillation pH 4.0 (Ac)” value [3] was “FND”. The “Fibrillation pH 7.0 (His)” value [3] was “FND”, the “Fibrillation pH 7.0 (Phos.)” value [3] was “FND” and the EC50 [4] was 0.05 nM.

In the case of `CC[C@H](C)[C@@H](C(=O)N[C@@H](CC(C)C)C(=O)N[C@@H](CO)C(=O)N[C@@H](CO)C(=O)N[C@H](C(=O)N[C@@H](CCC(=O)O)C(=O)N[C@H](C(=O)NCC(=O)N[C@@H](CO)C(=O)N[C@@H](CC(N)=O)C(=O)N[C@H](C(=O)N1C[C@H](O)C[C@H]1C(N)=O)[C@@H](C)O)C(C)C)[C@@H](C)O)N(C)C(=O)[C@H](C)NC(=O)CN(C)C(=O)[C@H](Cc1ccccc1)NC(=O)[C@H](CO)NC(=O)[C@H](CO)NC(=O)[C@H](CCCNC(=N)N)NC(=O)[C@H](CCC(N)=O)NC(=O)[C@H](CC(C)C)NC(=O)[C@H](Cc1ccccc1)NC(=O)[C@H](Cc1c[nH]cn1)NC(=O)[C@H](C)NC(=O)[C@H](CC(C)C)NC(=O)[C@H](CCCNC(=N)N)NC(=O)[C@H](CCC(=O)O)NC(=O)[C@@H](NC(=O)[C@H](C)NC(=O)[C@@H]1CSSC[C@H](NC(=O)[C@H](CCCNC(=N)N)NC(=O)CC[C@H](NC(=O)CCCCCCCCCCCCCCCCCCC(=O)O)C(=O)O)C(=O)N[C@@H](CC(N)=O)C(=O)N[C@@H]([C@@H](C)O)C(=O)N[C@@H](C)C(=O)N[C@@H]([C@@H](C)O)C(=O)N1)[C@@H](C)O` [Compound 56, [19CD]-isoGlu-R-C( )-NTAT-C( )-ATERLAHFLQRSSF-Gly(Me)-A-Ile(Me)-LSSTEVGSNT-Hyp-NH2] ({C20 diacid-γGlu}-RCNTATCATERLAHFLQRSSF[Sar]A[NMeI]LSSTEVGSNT[Hyp]-NH2; disulfide 2-7), the EC50 [1] is reported as 0.08 nM, the “Normalized purity … pH 4” value [2] is reported as “A (A = >90%)” and the “Normalized purity … pH 6” value [2] is reported as “A (A = >90%)”. The “Normalized purity … pH 7.5” value [2] was “A (A = >90%)”, the “Normalized purity … pH 9” value [2] was “B (B = 70-90%)” and the “Fibrillation pH 4.0 (Ac)” value [3] was “FND”. The “Fibrillation pH 7.0 (His)” value [3] was “FND”, the “Fibrillation pH 7.0 (Phos.)” value [3] was “FND” and the EC50 [4] was 0.06 nM.

In the case of `CC[C@H](C)[C@@H](C(=O)N[C@@H](CC(C)C)C(=O)N[C@@H](CO)C(=O)N[C@@H](CO)C(=O)N[C@H](C(=O)N[C@@H](CCC(=O)O)C(=O)N[C@H](C(=O)NCC(=O)N[C@@H](CO)C(=O)N[C@@H](CCCC(=O)O)C(=O)N[C@H](C(=O)N1C[C@H](O)C[C@H]1C(N)=O)[C@@H](C)O)C(C)C)[C@@H](C)O)N(C)C(=O)[C@H](C)NC(=O)CN(C)C(=O)[C@H](Cc1ccccc1)NC(=O)[C@H](CO)NC(=O)[C@H](CO)NC(=O)[C@H](CCCNC(=N)N)NC(=O)[C@H](CCC(N)=O)NC(=O)[C@H](CC(C)C)NC(=O)[C@H](Cc1ccccc1)NC(=O)[C@H](Cc1c[nH]cn1)NC(=O)[C@H](C)NC(=O)[C@H](CC(C)C)NC(=O)[C@H](CCCNC(=N)N)NC(=O)[C@H](CCC(=O)O)NC(=O)[C@@H](NC(=O)[C@H](C)NC(=O)[C@@H]1CSSC[C@H](NC(=O)[C@H](CCCNC(=N)N)NC(=O)CC[C@H](NC(=O)CCCCCCCCCCCCCCCCCCC(=O)O)C(=O)O)C(=O)NCC(=O)N[C@@H]([C@@H](C)O)C(=O)N[C@@H](C)C(=O)N[C@@H]([C@@H](C)O)C(=O)N1)[C@@H](C)O` [Compound 53, [19CD]-isoGlu-R-C( )-GTAT-C( )-ATERLAHFLQRSSF-Gly(Me)-A-Ile(Me)-LSSTEVGS-Aad-T-Hyp-NH2] ({C20 diacid-γGlu}-RCGTATCATERLAHFLQRSSF[Sar]A[NMeI]LSSTEVGS[Aad]T[Hyp]-NH2; disulfide 2-7), the EC50 [1] is reported as 0.13 nM, the “Normalized purity … pH 4” value [2] is reported as “A (A = >90%)” and the “Normalized purity … pH 6” value [2] is reported as “A (A = >90%)”. The “Normalized purity … pH 7.5” value [2] was “B (B = 70-90%)”, the “Normalized purity … pH 9” value [2] was “B (B = 70-90%)” and the “Fibrillation pH 4.0 (Ac)” value [3] was “FND”. For the same compound, the “Fibrillation pH 7.0 (His)” value [3] was “FND”, the “Fibrillation pH 7.0 (Phos.)” value [3] was “FND” and the EC50 [4] was 0.14 nM.
